Measured values reported in PubChem BioAssay (NCI).
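48-hour exposure; five concentrations; linearly interpolated endpoints. GI50 = concentration required for 50% inhibition of growth. At the TGI there is no net growth.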

What was measured:
Test in all cases: NCI-60 cell line screen, 48 h
HCC-2998 colon = tested on: HCC-2998 colon
OVCAR-4 ovarian = tested on: OVCAR-4 ovarian
UO-31 renal = tested on: UO-31 renal
RXF 393 renal = tested on: RXF 393 renal
IGROV1 ovarian = tested on: IGROV1 ovarian
SN12C renal = tested on: SN12C renal
OVCAR-8 ovarian = tested on: OVCAR-8 ovarian
HOP-92 NSCLC = tested on: HOP-92 NSCLC
LOX IMVI melanoma = tested on: LOX IMVI melanoma
SK-MEL-28 melanoma = tested on: SK-MEL-28 melanoma
CAKI-1 renal = tested on: CAKI-1 renal
NCI-H522 lung = tested on: NCI-H522 lung
UACC-62 melanoma = tested on: UACC-62 melanoma
NCI/ADR-RES ovarian = tested on: NCI/ADR-RES ovarian
OVCAR-3 ovarian = tested on: OVCAR-3 ovarian
HT29 colon = tested on: HT29 colon
M14 melanoma = tested on: M14 melanoma
MDA-MB-468 breast = tested on: MDA-MB-468 breast
HCT-116 colon = tested on: HCT-116 colon
SK-MEL-5 melanoma = tested on: SK-MEL-5 melanoma
MDA-MB-231 breast = tested on: MDA-MB-231 breast
MDA-MB-435 = tested on: MDA-MB-435
COLO 205 colon = tested on: COLO 205 colon
SF-539 CNS = tested on: SF-539 CNS
CCRF-CEM leukemia = tested on: CCRF-CEM leukemia
SF-268 CNS = tested on: SF-268 CNS
A498 renal = tested on: A498 renal
NCI-H226 lung = tested on: NCI-H226 lung
HS 578T breast = tested on: HS 578T breast
SW-620 colon = tested on: SW-620 colon
RPMI-8226 leukemia = tested on: RPMI-8226 leukemia
NCI-H460 lung = tested on: NCI-H460 lung
UACC-257 melanoma = tested on: UACC-257 melanoma
HCT-15 colon = tested on: HCT-15 colon
SK-MEL-2 melanoma = tested on: SK-MEL-2 melanoma
786-0 renal = tested on: 786-0 renal
HL-60(TB) leukemia = tested on: HL-60(TB) leukemia
SNB-75 CNS = tested on: SNB-75 CNS
BT-549 breast = tested on: BT-549 breast
TK-10 renal = tested on: TK-10 renal
ACHN renal = tested on: ACHN renal
OVCAR-5 ovarian = tested on: OVCAR-5 ovarian
EKVX NSCLC = tested on: EKVX NSCLC
PC-3 prostate = tested on: PC-3 prostate
NCI-H23 lung = tested on: NCI-H23 lung
T-47D breast = tested on: T-47D breast
SR leukemia = tested on: SR leukemia
MOLT-4 leukemia = tested on: MOLT-4 leukemia
U251 CNS = tested on: U251 CNS
MCF7 breast = tested on: MCF7 breast
SNB-19 CNS = tested on: SNB-19 CNS
A549 NSCLC = tested on: A549 NSCLC
KM12 colon = tested on: KM12 colon
SK-OV-3 ovarian = tested on: SK-OV-3 ovarian
MALME-3M melanoma = tested on: MALME-3M melanoma
HOP-62 NSCLC = tested on: HOP-62 NSCLC
DU-145 prostate = tested on: DU-145 prostate
SF-295 CNS = tested on: SF-295 CNS
K-562 leukemia = tested on: K-562 leukemia

CC(=C(c1ccc(OCCN2CCCCCC2)cc1)c1ccc(OCCN2CCCCCC2)cc1)c1ccc(Cl)cc1
GI50 (HCC-2998 colon): 1.05 µM
TGI (HCC-2998 colon): 3.86 µM
GI50 (OVCAR-4 ovarian): 5.76 µM
TGI (OVCAR-4 ovarian): 11.7 µM
GI50 (UO-31 renal): 4.66 µM
TGI (UO-31 renal): 9.6 µM
GI50 (RXF 393 renal): 1.76 µM
TGI (RXF 393 renal): 7.23 µM
GI50 (IGROV1 ovarian): 5.09 µM
TGI (IGROV1 ovarian): 10.3 µM
GI50 (SN12C renal): 5.38 µM
TGI (SN12C renal): 10.9 µM
GI50 (OVCAR-8 ovarian): 7.95 µM
TGI (OVCAR-8 ovarian): 18.5 µM
GI50 (HOP-92 NSCLC): 2.01 µM
TGI (HOP-92 NSCLC): 8.1 µM
GI50 (LOX IMVI melanoma): 0.776 µM
TGI (LOX IMVI melanoma): 1.61 µM
GI50 (SK-MEL-28 melanoma): 0.682 µM
TGI (SK-MEL-28 melanoma): 1.29 µM
GI50 (CAKI-1 renal): 4.69 µM
TGI (CAKI-1 renal): 9.75 µM
GI50 (NCI-H522 lung): 4.84 µM
TGI (NCI-H522 lung): 10.1 µM
GI50 (UACC-62 melanoma): 1.09 µM
TGI (UACC-62 melanoma): 3.57 µM
GI50 (NCI/ADR-RES ovarian): 5.82 µM
TGI (NCI/ADR-RES ovarian): 11.6 µM
GI50 (OVCAR-3 ovarian): 2.83 µM
TGI (OVCAR-3 ovarian): 8.44 µM
GI50 (HT29 colon): 0.942 µM
TGI (HT29 colon): 2.55 µM
GI50 (M14 melanoma): 0.838 µM
TGI (M14 melanoma): 1.85 µM
GI50 (MDA-MB-468 breast): 1.3 µM
TGI (MDA-MB-468 breast): 6.08 µM
GI50 (HCT-116 colon): 1.49 µM
TGI (HCT-116 colon): 6.22 µM
GI50 (SK-MEL-5 melanoma): 2.84 µM
TGI (SK-MEL-5 melanoma): 8.15 µM
GI50 (MDA-MB-231 breast): 4.19 µM
TGI (MDA-MB-231 breast): 8.99 µM
GI50 (MDA-MB-435): 0.807 µM
TGI (MDA-MB-435): 1.9 µM
GI50 (COLO 205 colon): 0.813 µM
TGI (COLO 205 colon): 1.62 µM
GI50 (SF-539 CNS): 4.54 µM
TGI (SF-539 CNS): 9.49 µM
GI50 (CCRF-CEM leukemia): 1.11 µM
TGI (CCRF-CEM leukemia): 3.88 µM
GI50 (SF-268 CNS): 5.44 µM
TGI (SF-268 CNS): 11.4 µM
GI50 (A498 renal): 5.47 µM
TGI (A498 renal): 11 µM
GI50 (NCI-H226 lung): 5.96 µM
TGI (NCI-H226 lung): 12.6 µM
GI50 (HS 578T breast): 5.25 µM
TGI (HS 578T breast): 13.3 µM
GI50 (SW-620 colon): 0.757 µM
TGI (SW-620 colon): 1.75 µM
GI50 (RPMI-8226 leukemia): 1.29 µM
TGI (RPMI-8226 leukemia): 4.7 µM
GI50 (NCI-H460 lung): 1.37 µM
TGI (NCI-H460 lung): 5.14 µM
GI50 (UACC-257 melanoma): 1.44 µM
TGI (UACC-257 melanoma): 5.62 µM
GI50 (HCT-15 colon): 1.48 µM
TGI (HCT-15 colon): 5.7 µM
GI50 (SK-MEL-2 melanoma): 6.88 µM
TGI (SK-MEL-2 melanoma): 12.6 µM
GI50 (786-0 renal): 3.62 µM
TGI (786-0 renal): 10.5 µM
GI50 (HL-60(TB) leukemia): 1.32 µM
TGI (HL-60(TB) leukemia): 9.39 µM
GI50 (SNB-75 CNS): 4.78 µM
TGI (SNB-75 CNS): 9.96 µM
GI50 (BT-549 breast): 7.09 µM
TGI (BT-549 breast): 13.3 µM
GI50 (TK-10 renal): 6.19 µM
TGI (TK-10 renal): 11.7 µM
GI50 (ACHN renal): 5.9 µM
TGI (ACHN renal): 11.2 µM
GI50 (OVCAR-5 ovarian): 5 µM
TGI (OVCAR-5 ovarian): 10.1 µM
GI50 (EKVX NSCLC): 5.77 µM
TGI (EKVX NSCLC): 11.5 µM
GI50 (PC-3 prostate): 4.53 µM
TGI (PC-3 prostate): 10 µM
GI50 (NCI-H23 lung): 5.58 µM
TGI (NCI-H23 lung): 11.1 µM
GI50 (T-47D breast): 2.89 µM
TGI (T-47D breast): 9.27 µM
GI50 (SR leukemia): 0.963 µM
TGI (SR leukemia): 3.33 µM
GI50 (MOLT-4 leukemia): 1.08 µM
TGI (MOLT-4 leukemia): 3.33 µM
GI50 (U251 CNS): 5.31 µM
TGI (U251 CNS): 11.3 µM
GI50 (MCF7 breast): 0.654 µM
TGI (MCF7 breast): 1.77 µM
GI50 (SNB-19 CNS): 6.06 µM
TGI (SNB-19 CNS): 11.5 µM
GI50 (A549 NSCLC): 4.64 µM
TGI (A549 NSCLC): 12.1 µM
GI50 (KM12 colon): 4.56 µM
TGI (KM12 colon): 10.1 µM
GI50 (SK-OV-3 ovarian): 6.46 µM
TGI (SK-OV-3 ovarian): 12.1 µM
GI50 (MALME-3M melanoma): 0.745 µM
TGI (MALME-3M melanoma): 1.66 µM
GI50 (HOP-62 NSCLC): 5.77 µM
TGI (HOP-62 NSCLC): 11.6 µM
GI50 (DU-145 prostate): 5.19 µM
TGI (DU-145 prostate): 10.4 µM
GI50 (SF-295 CNS): 1.97 µM
TGI (SF-295 CNS): 7.2 µM
GI50 (K-562 leukemia): 0.908 µM
TGI (K-562 leukemia): 40.7 µM
